Experiments:
Type in all cases: cell-based
[1] = system: porcine embryonic stem cells; conditions: for proportion of cells undergoing cell division / proliferation rate as the concentration increased (Ki-67): various concentrations in LDN-193189-containing medium
[2] = system: porcine embryonic stem cells
[3] = system: porcine embryonic stem cells; remark: listed apart in the source
Experimental: To analyze the effect of LDN-193189, which is an ALK2/3 inhibitor, on feeder cell-free culture of porcine embryonic stem cells, LDN-193189 cytotoxicity was confirmed through annexin V staining (FIG. 1). […] In addition, treatment at a concentration of 1000 nM or more for 24 hours or more induced apoptosis of most cells.
To confirm the optimal concentration of “FF-embryonic stem cell culture medium” containing LDN-193189 from 100 nM to 1000 nM, the concentration was subdivided and annexin V staining was performed (FIG. 3A). […] In fact, LDN-193189 is known to inhibit the activin A signaling system involved in stem cell proliferation at high concentrations.

[4] = system: porcine embryonic stem cells; test: qPCR gene expression analysis in feeder cell-free culture; conditions: LDN-193189 250 nM, cultured without feeder cells
Experimental: To analyze the expression level of pluripotency-related genes, differentiation-related genes, and the like depending on the culture period, porcine embryonic stem cells were cultured using “FF-embryonic stem cell culture medium” containing 100 nM LDN-193189 (ff-ESCs^LDN+) and “FF-embryonic stem cell culture medium” not containing LDN-193189 (ff-ESCs^LDN−), without feeder cells, and porcine embryonic stem cells were cultured as a control using the aforementioned embryonic stem cell culture medium along with feeder cells (control ESCs).
The cells were obtained on days 2, 4 and 6 after plating using each medium. Total RNA was extracted using TRIzol reagent (Invitrogen, Carlsbad, USA) and cDNA was synthesized using High-Capacity RNA-to-cDNA Kit (Applied Biosystems, Foster City, USA). cDNA was amplified using the DyNAmo HS SYBR Green qPCR kit (Thermo Fisher Scientific, Waltham, USA) with the primer sets listed in Table 1.
In addition, as shown in C and D of FIG. 2, the effect of treatment with LDN-193189 (250 nM), which is an inhibitor of the SMAD1/5 signaling system, on feeder cell-free culture of porcine embryonic stem cells was confirmed.

[5] = system: porcine embryonic stem cells; test: immunological staining of NANOG and SSEA4 in culture medium containing FBS; conditions: culture medium in which KSR was replaced with FBS
Source text: In addition, it was confirmed whether the substance helps maintain the pluripotency of porcine embryonic stem cells in a culture medium containing fetal bovine serum (FBS), rather than a serum replacement.
As a result of confirming the pluripotency markers NANOG and SSEA4 through immunological staining, the culture medium containing FBS induced differentiation of porcine embryonic stem cells, and many cell colonies with reduced expression of NANOG and SSEA4 were discovered.

[6] = system: porcine embryonic stem cells; test: qPCR analysis in culture medium containing FBS; conditions: environment containing FBS
[7] = system: porcine embryonic stem cells grown on feeder cells; test: pluripotency marker staining of cells grown on feeder cells
Source text: The effect of medium for feeder cell-free culture containing LDN-193189 on porcine embryonic stem cells grown on feeder cells was confirmed.

[8] = system: porcine embryonic stem cells grown on feeder cells; test: qPCR analysis of cells grown on feeder cells
Source text: Treatment with LDN-193189 reduced the spontaneous differentiation of porcine embryonic stem cells grown on feeder cells and enhanced the expression of the SSEA4 marker. This is presumed to be because it suppresses the SMAD1/5 signaling system involved in mesodermal differentiation and activates the SMAD2/3 signaling involved in the proliferation of stem cells. In addition, qPCR analysis confirmed that treatment with LDN-193189 reduced the expression of genes involved in the development of various mesodermal tissues.

With `Cc1c[nH]c(-c2cnc(NCCNc3ccc(C#N)cn3)nc2-c2ccc(Cl)cc2Cl)n1` [CHIR99021] the “proportion of cells undergoing cell division / proliferation rate as the concentration increased (Ki-67)” value [1] was “gradually decreased”.

In the case of `O=C(Nc1cccc2cccnc12)c1ccc(N2C(=O)[C@@H]3[C@H](C2=O)[C@@H]2C=C[C@H]3C2)cc1` [IWR-1], the “proportion of cells undergoing cell division / proliferation rate as the concentration increased (Ki-67)” value [1] is reported as “gradually increased”, the cytotoxicity [2] is reported as “showed cytotoxicity at high concentrations” and the “concentration showing the highest cellular activity” value ([2]; various concentrations) is reported as 0.5 µM.

`c1ccc2c(-c3cnn4cc(-c5ccc(N6CCNCC6)cc5)cnc34)ccnc2c1` [LDN-193189] was tested, and the “concentration with high cytotoxicity (annexin V staining)” value [3] was ≥ 1000 nM, the “expression of genes involved in pluripotency and mesodermal tissue development” value [4] was “restored to the level when cultured on the feeder cells” and the Ki-67 staining result ([1]; from 100 nM to 1000 nM) was “no significant difference”. The “final treatment concentration (maximum concentration that inhibits only the BMP signaling system and does not cause cytotoxicity)” value [2] was 100 nM, the “FBS-induced differentiation (colonies with reduced expression of NANOG and SSEA4)” value [5] was “alleviated” and the “expression of mesoderm-related genes (qPCR)” value [6] was “reduced”. The “expression of the SSEA4 marker” value [7] was “enhanced”, the spontaneous differentiation [7] was “reduced” and the “expression of genes involved in the development of mesodermal tissues (qPCR)” value [8] was “reduced”.

“FGF2: fibroblast growth factor 2 (hrFGF2, R&D Systems)” was tested, and the “proportion of cells undergoing cell division / proliferation rate as the concentration increased (Ki-67)” value [1] was “gradually increased” and the “concentration at which cell activity decreased due to cytotoxicity (WST-8)” value [2] was ≥ 100 ng/mL.

In the case of “activin A: ActA (activin; activin A) (R&D Systems), cytokine in culture medium”, the “concentration with decreased proliferation rate (Ki-67)” value [1] is reported as ≥ 0.01 µg/mL and the “concentration at which cell activity decreased due to cytotoxicity (WST-8)” value [2] is reported as ≥ 10 ng/mL.

Source: patent publication US20250051724A1, “MEDIUM COMPOSITION FOR CULTURING PORCINE PLURIPOTENT STEM CELLS” (SPACE F CORPORATION, priority 2022, published 2025)
